Patent US10323254B2, “Method for regulating plant growth” (RIKEN, priority 2015, dated 2019)

Tests used:
[1] = test system: BSS1-GFP; assay: Non-reducing immunoblot analysis of BSS1-GFP oligomer; assay type: in vivo, Arabidopsis thaliana; details: non-reducing conditions (without DTT); after BL treatment
Experimental: Oligomeric BSS1-GFP and monomeric BSS1-GFP are shown by arrowhead O and arrowhead M, respectively. […] Total lysates were prepared from the transgenic plants and ultracentrifuged to separate the insoluble (precipitation) and soluble (supernatant) fractions. The insoluble fractions were then treated with the indicated surfactants and subjected to further ultracentrifugation. The resulting supernatants and pellets were analyzed by immunoblotting. As a control, the indicated surfactant-treated BIL2-GFP (protein localized to the mitochondria) samples were centrifuged as above.
[…] The proteins were separated by SDS-PAGE (10% acrylamide gel). After electrophoresis, the proteins were electrophoretically transferred to a Hybond ECL nitrocellulose membrane (Amersham). […]

[2] = test system: BSS1 pro:GUS; assay: GUS staining of BSS1 pro:GUS transgenic seedlings; assay type: in vivo, Arabidopsis thaliana; details: 3-day-old seedlings on medium with 3 μM Brz, dark or light
Experimental: The data represent the mean±s.d. from 4 independent experiments. […] The samples were grown in the same conditions as FIG. 4A for 3 days (scale bar: 5 mm). FIGS. 4C to 4E show the results of determining the BSS1 expression level by qRT-PCR. Wild-type (WT) seedlings grown on medium with different concentrations of Brz (FIG. 4C) and BL (FIG. 4D) in the light for 7 days and dark-grown seedlings exposed to light for 0-7 days (Figure E) were used for analysis of the BSS1 expression level. The data represent the mean±s.d. of 4 independent experiments. The seedlings of the BSS1 promoter: GUS transgenic plants were used for the histochemical detection of GUS expression. The samples were stained at 37° C. overnight in GUS staining solution as previously described (Ito and Fukuda, 2002, ZEN1 is a key enzyme in the degradation of nuclear DNA during programmed cell death of tracheary elements. Plant Cell 14: 3201-3211). To test the induction of GUS expression, 3-day-old transgenic seedlings were grown on medium with 3 μM Brz or dimethyl sulfoxide (DMSO) as a control.

| Compound | amount of the oligomeric form of BSS1-GFP [1] | BSS1 pro:GUS reporter expression [2] |
| --- | --- | --- |
| CC(C)[C@H](C)[C@@H](O)[C@H](O)[C@@H](C)[C@H]1CC[C@H]2[C@@H]3COC(=O)[C@H]4C[C@H](O)[C@H](O)C[C@]4(C)[C@H]3CC[C@]12C [BL, brassinolide] | significantly decreased |  |
| CC(O)(c1ccccc1)C(Cc1ccc(Cl)cc1)n1cncn1 (centres unmarked) [Brz, brassinazole] |  | caused BSS1 expression in the hypocotyls in the dark and in the cotyledons under light and dark conditions |
